Measured values as given in patent US12358954B2, “Capsid-modified rAAV vector compositions and methods therefor” (priority 2012, dated 2025).

What was measured:
[1] = tested on: primary human dendritic cells; assay: FACS analyses of markers of maturation (CD83, CD86) of primary human dendritic cells; format: cell-based
Description: Cells, Antibodies and Chemicals. HeLa cells were obtained from the American Type Culture Collection (Rockville, Md., USA) and maintained as monolayer cultures in Iscove's-modified Dulbecco's medium (IMDM, Invitrogen, Inc., Carlsbad, Calif., USA) supplemented with 10% newborn calf serum (NCS) (Lonza, Inc., Basel, SWITZERLAND) and antibiotics. Leukapheresis-derived PBMCs were resuspended in serum-free AIM-V medium (Lonza, Inc.) and semi-adherent cell fractions were incubated in serum-free AIM-V medium supplemented with recombinant human IL-4 (500 U/mL) and GM-CSF (800 U/mL) (R&D Systems, MN, USA). Cells were treated with NF-κB modulators ([…]), and cytokines cocktail including 10 ng/mL TNF-α, 10 ng/mL IL-1, 10 ng/mL IL-6, […] (R&D Systems) for 20 hr. Cells were harvested, characterized to ensure they met the typical phenotype of mature DCs (CD83, RPE, murine IgG1, CD86, FITC, murine IgG1; Invitrogen, Inc.). All primary and secondary antibodies were purchased from Cell Signaling Technology, Inc. (Danvers, Mass., USA) or Santa Cruz Biotechnology, Inc (Santa Cruz, Calif., USA). NF-kB activators [Etoposide (VP16), Aphidicolin, Hydroxyurea (HU)] and NF-kB inhibitors [Bay11-7082 (Bay11), Pyrrolidine dithiocarbamate (PDTC)] were purchased from Sigma-Aldrich Co. (St. Louis, Mo., USA). These compounds were re-suspended in either DMSO (Sigma-Aldrich Co.) or in sterile, DNAase-, RNAase-free water (Invitrogen, Inc.) as per the manufacturer's instructions.

[2] = tested on: pro-inflammatory cytokines and chemokines; assay: Gene-expression analysis of innate immune response in liver by RT-PCR; format: in vivo, C57BL/6J mice
Description: Recombinant AAV Vector Transduction Studies in Vivo. Groups of 6-weeks old normal C57BL/6J mice (Jackson Laboratories, Bar Harbor, Me., USA) were administered intra-peritoneally, with a single dose (20 mg/kg) of NF-κB inhibitor Bay11, in a 200-μL volume diluted in DMSO (day 0). Animals injected with only the DMSO carrier solvent were considered as baseline (mock) group (n=75) and animals injected with Bay11 were the test group (n=75). At this point, the animals from mock and Bay11 groups were randomized to receive either phosphate buffered saline (PBS, pH 7.4) or WT-AAV or TM-AAV vectors (n=25 mice each group). On day 1, ˜1×10^11 viral genome (vg) particles of WT-AAV2-EGFP or TM-AAV2-EGFP vectors or PBS were administered intravenously via the tail vein. To measure the modulation of immune response to AAV, 5 animals each from PBS-, WT-AAV-, or TM-AAV vector-injected groups were sacrificed by carbon-dioxide inhalation at different time points post-vector administration (2, 6, 10, 24 hrs and day 10). Hepatic lobes were collected, cross-sectioned and mounted on slides to study the effect of Bay11 on AAV-mediated EGFP expression (from day 10 mice). […]
Gene-Expression Analysis of Innate Immune Response by RT-PCR Assay. […] Data were captured and analyzed using an ABI Prism 7500 Sequence Detection System with v1.1 Software (Applied Biosystems). The baseline was determined automatically for the 18S rRNA and for other genes. Thresholds were determined manually for all genes. Gene expression was measured by the comparative threshold cycle (Ct) method. The parameter threshold cycle (Ct) was defined as the cycle number at which the reporter fluorescence generated by the cleavage of the probe passed a fixed threshold above baseline. […] Relative gene expression was determined for each group of treated and untreated animals and values >2.6 and <0.38 were considered as significant up-regulations and down-regulations between the groups and was calculated by assessing the variability in the 96 well plates used to measure specific gene expression.

anti-AAV2 IgG2a = assay: Anti-AAV2 IgG2a levels in peripheral blood; format: in vivo, mice; conditions: day 10
Description: Anti-AAV2 IgG2a levels were determined in peripheral blood from mice at day 10 following injections with scAAV vectors, with and without prior administration of Bay11 (n=4 each);
Inhibition of NF-κB Activation Leads to Suppression of Pro-Inflammatory Cytokine Production Prior to AAV Vector-Mediated Gene Transfer in Mice in Vivo. In in vivo studies, a single dose of Bay11 at 20 mg/kg body weight was administered intra-peritoneally (i.p.) 12 hrs prior to vector administration in C57BL/6 mice. Transcript levels from liver homogenates of innate immune mediators (FIG. 3A) or for activation of NF-κB (FIG. 3B) genes were measured from Bay11- and vector-injected groups and compared with sham-injected mice. […] The up-regulation of type I interferon expression by both wild-type (WT-AAV) and TM-AAV vectors was unaffected by Bay11 (FIG. 8A, FIG. 8B, FIG. 8C, FIG. 8D, FIG. 8E, and FIG. 8F).

[3] = Mature DCs + AAV + Cytokines + modulator

## Cc1ccc(S(=O)(=O)/C=C/C#N)cc1 [Bay11, Bay11-7082]
[1]
  maturation of DCs (CD83, CD86): inhibition of cytokine-mediated maturation
[1]; [3]
  Geometric means of levels of expression in cells expressing CD83: 16.88
  Geometric means of levels of expression in cells expressing CD86: 10.11
[2]; Bay11 20 mg/kg i.p. 12 hrs prior to vector, 2 hrs post-vector
  levels of pro-inflammatory cytokines or chemokines (IL-1α, IL-6, TNFα, IL-12α, KC, RANTES) in liver: significantly reduced
[2]; Bay11 prior to gene transfer, C57BL/6 mice
  decrease in AAV vector-induced production of pro-inflammatory cytokines and chemokines: up to 7 fold
[2]; mouse, in vivo
  up-regulation of type I interferon expression by WT-AAV and TM-AAV vectors: unaffected
anti-AAV2 IgG2a
  anti-AAV2 antibody response: significantly reduced
